According to PubChem BioAssay AID2253 (Southern Research Specialized Biocontainment Screening …, 2010):

System: THP-1 viability, CellTiter-Glo luminescence, 72 h
Experiment: human monocytic cell viability reduction – S. typhimurium screen hits, cytotoxicity control for Salmonella PhoP regulon inhibitors, dose response (AID 2253)

SMILES	EC50 [µM]
CCc1ccc2[nH]c(=O)c(CN(Cc3ccccc3)C(=O)Nc3ccccc3OC)cc2c1	43.1
CCCCCCOC(=O)C[N+](C)(C)CCOC1CC2CCC1(C)C2(C)C (stereo unspecified)	2.8
CN1CCN(C(c2ccc(C(F)(F)F)cc2)c2cc(Cl)c3cccnc3c2O)CC1 (stereo unspecified)	2.96
Oc1c(C(Nc2cccc(C(F)(F)F)c2)c2cccnc2)ccc2cccnc12 (stereo unspecified)	7.65
Cc1ccnc(NC(c2cccnc2)c2ccc3cccnc3c2O)c1 (stereo unspecified)	12
CCCCCCCCCCCCCCCC[n+]1cccc(C(=O)N(CC)CC)c1	0.64
CCN1CCN(C(c2ccc(C(F)(F)F)cc2)c2ccc3cccnc3c2O)CC1 (stereo unspecified)	1.78
C#CC(=O)N(c1cc(OC)ccc1OC)C(C(=O)NC1CCCC1)c1cccs1 (stereo unspecified)	1.42
Cc1cc(/C=N/NC(=O)c2cccc([N+](=O)[O-])c2)c(C)n1-c1ccc(Cl)cc1Cl	43.9
CCc1ccc(Nc2nc(N)nc(CSc3nc4ccccc4s3)n2)cc1	33.8
COc1ccc(C(=O)On2c(-c3ccc(Br)cc3)nc3ccccc3c2=O)cc1	12.8
O=S(=O)(c1ccccc1)N(CC(O)Cn1c2ccccc2c2ccccc21)c1ccccc1 (stereo unspecified)	11.1
CCCCCCCCn1c2c(c(=N)c3c1CCC3)CCCC2	0.78
C1=C(CCNc2ncnc3c2[nH]c2ccccc23)CCCC1	6.37
Cc1cc(/C=N/n2c(COc3ccccc3)nc3ccccc3c2=O)c(O)c([N+](=O)[O-])c1	4.71
O=C(C[n+]1cc(-c2ccc(Cl)cc2)n2c1CCC2)Nc1nc(-c2ccccc2)cs1	43.3
c1cnc2c(c1)ccc1cccnc12	3.8
COc1ccc(Nc2ccc3c(c2)=NC2(CCCCC2)[N+]=3[O-])cc1	4.59
CC[C@H]1OC(=O)C[C@@H](O)[C@H](C)[C@@H](O[C@@H]2O[C@H](C)C[C@H](N(C)C)[C@H]2O)[C@@H](CC=O)C[C@@H](C)C(=O)C=C[C@]2(C)O[C@H]2[C@@H]1C	11.9
Cc1ccc(C=Nc2ccccc2C(N)=O)cc1	8.83
O=C(NNc1c2ccccc2nc2ccccc12)c1ccccc1O	28.3
CCOC(=O)N1CCN(S(=O)(=O)c2ccc(C(=O)NNc3nc4cc(C)cc(C)c4s3)cc2)CC1	2.88
Clc1ccc(OCCN2CCN(c3ncnc4sccc34)CC2)cc1	< 0.1

SMILES	EC50 [µM]
COc1ccc(/C=C/C(=O)NC(=S)NNC(=O)c2cnccn2)cc1	2.02
Cc1ccc(C(C[N+](=O)[O-])c2c(N)n(C)c(=O)n(C)c2=O)cc1 (stereo unspecified)	34.2
CC1CCN(c2ccc(NC(=S)NC(=O)c3ccc(-c4cccc([N+](=O)[O-])c4)o3)cc2)CC1	23.1
Cc1ccc(S(=O)(=O)N(CC(=O)N=Nc2c(O)[nH]c3ccccc23)c2ccc(C)c(C)c2)cc1	12.4
Cc1ccc(C(=O)NNc2c3ccccc3nc3ccccc23)cc1	27.5
Oc1ccc(CN2CCc3ccccc3C2)c2cccnc12	3.39
C#CCn1cc(/C=N/Nc2nc3ccccc3[nH]2)c2ccccc21	6.14
COc1ccc(/C=C/c2nc3ccccc3n2Cc2ccccc2OC)cc1	13.2
COc1ccc(C(C[N+](=O)[O-])C2(c3ccc(OC)c(OC)c3)C(=O)c3ccccc3C2=O)cc1 (stereo unspecified)	12.5
N=c1c2c(n(Cc3ccc(Br)cc3)c3c1CCC3)CCCC2	3.88
O=C(Nc1nc(-c2ccncc2)cs1)C1c2ccccc2Oc2ccccc21	16.9
c1ccc(-c2cccc(-c3ccccn3)n2)nc1	0.45
COC(=O)c1c(NC(=O)c2ccc([N+](=O)[O-])o2)sc2c1CCN(C(C)C)C2	1.2
O=c1[nH]c(NCc2ccco2)nnc1Cc1ccccc1Cl	6.65
O=C(N/N=C/c1sc2ccccc2c1O)c1cccc2ccccc12	3.51
Cc1[nH]c2ccccc2c1C1=NNC(=Nc2ccc(F)cc2)SC1	12.6
Cc1ccc(C=Nc2ccccc2C(N)=O)s1	10.8
O=C(Nc1ccc(Cl)c(Cl)c1)Nc1ccccc1O	21.1
Cc1cc(C2=NNC(=NC3CC3)SC2)c(C)n1Cc1ccco1	5.69
CCCCCCCCCCCCCCCC[N+](C)(C)CCN(Cc1ccc(OC)cc1)c1ncccn1	0.51
CCCC(=O)NC(c1ccc(N(C)C)cc1)c1ccc2cccnc2c1O (stereo unspecified)	0.61
O=C(C[n+]1cc(-c2ccc(Cl)cc2)n2c1CCC2)Nc1nc(-c2ccc(F)cc2)cs1	26.7
NCCCC[C@H]1CN=C(N)N1CCC12CC3CC(CC(C3)C1)C2	33.1

SMILES	EC50 [µM]
CCCC(=O)NC(c1ccccc1)c1ccc2cccnc2c1O (stereo unspecified)	0.59
C#CCOCCOCCOCCNc1nc(N2CCN(C(=O)CCCCCCCCCCNC(=O)[C@H](CCCN=C(N)N)n3cc(C[C@@H](C)CC)nn3)CC2)nc(N2CCN(C(=O)CCCCCCCCCCNC(=O)[C@@H]([C@H](C)CC)n3cc(CCCCCN)nn3)CC2)n1	5.33
CCCCCCCCCCCCCCCCn1cc[n+](CC(C)=O)c1	0.8
Nc1nonc1-n1nnc(C(=O)N/N=C/c2ccc(Br)cc2)c1CSC1=NCCS1	23.7
NC1=NC(=Nc2ccc(Br)cc2)c2ccccc21	25.8
CC(C)[C@@H]1CC[C@@H](C)C[C@H]1OC(=O)C[n+]1cc(-c2ccc(Cl)cc2)n2c1CCCCC2	2.3
CCN1CCN(C(c2cccnc2)c2cc(Cl)c3cccnc3c2O)CC1 (stereo unspecified)	8.34
Nc1nc2ccccc2n1CCOc1ccccc1Cl	12.8
Oc1c(I)cc(Cl)c2cccnc12	14.4
Nc1nonc1C(=O)NCCN=Cc1cc(Cc2ccccc2)cc(Br)c1O	37.8
CC(C)C(=O)NC(c1cccc([N+](=O)[O-])c1)c1ccc2cccnc2c1O (stereo unspecified)	0.51
Oc1cccc(Nc2c3ccccc3nc3ccccc23)c1	12
CCNC(=S)NNC(=O)c1ccccn1	25.5
COc1cccc(/C=N\NC(=O)Cn2nnc3ccccc32)c1O	10.9
O=C(NC(=S)NNC(=O)c1ccccc1O)c1ccco1	14.6
CCCCCN=C(N)N/N=C/c1c[nH]c2ccc(OC)cc12	1.58
CCCCCCCCCCOC(=O)Cn1c(COc2ccccc2)[n+](C)c2ccccc21	8.34
O=C(N/N=C/c1c[nH]c2ccccc12)c1cc(-c2ccc3ccccc3c2)n[nH]1	3.02
Cc1ccc(NC(=O)NCC2CCN(Cc3cccc(Cl)c3)CC2)cc1Cl	13.9
COc1ccc(N(C(=O)CCl)C(C(=O)NCCc2ccccc2)c2cccs2)cc1 (stereo unspecified)	3.46
CCOc1cccc(CNc2ccc(O)cc2)c1OCc1ccc(Cl)cc1Cl	26.9
CN(O)/C=c1/ccc2c(n1)C(=O)C=CC=2	23.3
COc1ccc(CNC[C@@H](CCCCN(C)Cc2ccc(OC)cc2)N2C[C@H](c3ccccc3)N(CCc3ccc(Cl)c(Cl)c3)C(=O)C2=O)cc1	3.93

SMILES	EC50 [µM]
Oc1ccc(Cl)cc1Cc1cc(Cl)ccc1O	19.6
CN1/C(=C\C=C\C2=[N+](C)c3ccc4ccccc4c3C2(C)C)C(C)(C)c2ccccc21	0.15
N#CC1=C(N)Oc2c(O)cc3ccccc3c2C1c1ccsc1 (stereo unspecified)	21.3
COc1ccc(-c2c/c(=N\c3nc(-c4ccccc4)c(C)s3)c3ccccc3o2)cc1O	2.36
O=C(/C=C/c1ccco1)NC(=S)Nc1ccc(N2CCCC2)cc1	9.59
O=C(C[n+]1cc(-c2ccc(Cl)c(Cl)c2)n2c1CCC2)N1c2ccccc2Sc2ccccc21	17.8
OC(c1cc(C(F)(F)F)nc2c(Cl)cc(Cl)cc12)C1CCCCN1 (stereo unspecified)	12.6
CCn1cc(C(=O)O)c(=O)c2cc(F)c(N3CCN(C(=S)NC(=O)c4c(OC)cccc4OC)CC3)cc21	43.5
CCCCCCCCNC(C)C(O)c1ccc(SC(C)C)cc1 (stereo unspecified)	10.7
C/C(CC(=O)Nc1ccc(Cl)c(C(F)(F)F)c1)=N\NC(=O)c1cc2ccccc2cc1O	8.06
O=S(=O)(Nc1ccc(N=Nc2ccc(O)c3ccccc23)cc1)c1ccccc1	22
CN(C)c1ccc(/C=C/c2ccc3ccccc3[n+]2C)cc1	0.3
Cc1nc(N)nc(N)c1/C=C/C(C)(C)c1ccc(Cl)cc1	< 0.1
C1CCC(C(CC2CCCCN2)C2CCCCC2)CC1 (stereo unspecified)	5.45
COc1ccc2[nH]c3c(C)c4ccncc4c(C)c3c2c1	1.27
CC1=C(C(=O)OCC2CCCO2)C(c2cccc(C(F)(F)F)c2)C2=C(CC(c3ccco3)CC2=O)N1 (stereo unspecified)	42.7
Cc1ccc(Cn2c(=N)n(CC(=O)c3ccc([N+](=O)[O-])cc3)c3ccccc32)cc1	8.18
Cc1ccc(Nc2nc(NCc3ccco3)c3ccccc3n2)cc1	4.34
Cc1ccc(C(C[N+](=O)[O-])c2c(-c3ccccc3O)[nH][nH]c2=O)cc1 (stereo unspecified)	27.7
O=C(N/N=C/c1cc(Cl)ccc1O)c1cccnc1	2.08
CCN(CC)c1ccc(/C=N/Nc2nc3ccccc3[nH]2)c(O)c1	2.7
CCOc1ccccc1NS(=O)(=O)c1ccc(Br)s1	40.5
Oc1ccc(N2CCN(Cc3ccc(OCCCN4CCCCC4)cc3)CC2)cc1	29.5

SMILES	EC50 [µM]
Cc1ccc(-n2sc3ccccc3c2=O)cc1S(=O)(=O)N1CCCCC1	2.75
O=C(Nc1ccc(Br)cc1)c1ccc(F)c(S(=O)(=O)NCc2cccs2)c1	21.7
Oc1c(C(Nc2ccccn2)c2ccccn2)ccc2cccnc12 (stereo unspecified)	4.23
CC(=O)Nc1cc(N=Cc2ccc(O)cc2O)c(Cl)cc1Cl	45.3
CC(C)c1ccc(NC(=O)N(CCc2nc3ccccc3[nH]2)C2CCCC2)cc1	43.1
CCCCCCCCCn1c2c(c(=N)c3c1CCC3)CCC2	0.42
Clc1ccc(-c2csc3ncnc(N4CCc5ccccc5C4)c23)cc1	44
CC(=O)c1ccc(NC(=O)Nc2cccc(Cl)c2)cc1	20.1
CCCCCCCOC(=O)C[N+](C)(C)CCOC1CC2CCC1(C)C2(C)C (stereo unspecified)	2.07
Cc1cc(C)cc(CC(Cc2nc3ccccc3[nH]2)c2nc3ccccc3[nH]2)c1 (stereo unspecified)	11.8
Nc1nc2ccccc2n1Cc1ccc(Cl)c(Cl)c1	24.4
O=c1[nH]c(CSc2ncc(-c3ccc(F)cc3)n2Cc2ccco2)nc2ccccc12	47
Cc1cc(NC(c2cccnc2)c2ccc3cccnc3c2O)no1 (stereo unspecified)	1.79
COc1ccc2c(c1)[nH]c1c(N3CCN(Cc4ccc5c(c4)OCO5)CC3)ncnc12	6.85
CCn1c2ccccc2c2cc(/C=N/NC(=O)c3ccccc3)ccc21	4.12
Cc1cccc(Sc2c([N+](=O)[O-])ncn2C)c1	32
S=C(Nc1cccc(Cl)c1)Nc1cccc2cnccc12	19
CNc1cc(Cl)c2nonc2c1[N+](=O)[O-]	3.65
O=C(CSc1ccccn1)N/N=C/c1cc([N+](=O)[O-])ccc1O	17.1
